In article PMC12474366, “Metabolic Profiling, Tissue Distribution, and Tolerance Assessment of Bopu Powder in Laying Hens Following Long-Term Dietary Administration” (Veterinary Sciences, 2025):
Where “and” joins values, the source holds several entries; their conditions need not be identical. Equal entries are not always repeated. Where two headings read alike, the source gives them in different places.

Columns and labels:
[1] = cited from earlier work
[2] = Metabolite identification in plasma and feces after intravenous PRO or ALL (LC-Q-TOF-MS)
Procedure: (§1) Nine hens were allocated to the metabolic study. These birds were randomly divided into three groups (n = 3 per group): the blank control group, the PRO group, and the ALL group.
(§2) Plasma: Blood samples were collected from the subcutaneous ulnar vein at 5, 10, 20, 30, 60, and 120 min post-administration. Samples were centrifuged at 4 °C and 3200× g for 10 min. The supernatant (plasma) was collected and stored at −80 °C for subsequent metabolite analysis.
(§3) Feces: Feces were collected over the intervals 0–6 h, 6–12 h, 12–24 h, and 24–48 h following intravenous administration. All fecal samples were immediately stored at −80 °C.
(§4) Plasma: Plasma samples stored at −80 °C were thawed at room temperature. A pooled plasma sample was prepared by combining equal volumes of plasma from each designated collection timepoint. A 200 μL aliquot of this pooled plasma was precisely transferred into a 1.5 mL microcentrifuge tube. Subsequently, 800 μL of acetonitrile was added to precipitate proteins, and the mixture was vortex-mixed vigorously for 2 min. Following protein precipitation, the tube was sealed and sonicated for 20 min. The sample was then centrifuged at 12,000× g for 10 min. The resulting supernatant was carefully collected and evaporated to dryness under a gentle stream of nitrogen at room temperature. The dried residue was reconstituted in 200 μL of acetonitrile, vortex-mixed for 2 min, and centrifuged again at 12,000× g for 5 min. Finally, the supernatant was filtered through a 0.22 μm organic membrane filter prior to LC-MS/MS analysis.
(§5) Feces: Fecal samples stored at −80 °C were thawed at room temperature and homogenized. A 2.00 g aliquot of the homogenized feces was accurately weighed into a 50 mL centrifuge tube. Ten milliliters of acetonitrile, serving as the extraction solvent, was added to the sample, which was then vortex-mixed for 5 min. The tube was sealed and subjected to sonication for 20 min.

[3] = porcine liver S9 fractions; cited from earlier work
[4] = set-up: method as in PMID 39805195; details: broiler hepatic microsomes, stable isotope tracing; cited from earlier work
[5] = set-up: method as in doi:10.19378/j.issn.1003-9783.2020.12.010; details: rats, oral administration of ALL; cited from earlier work
[6] = rat liver S9 fractions; cited from earlier work
[7] = cited from earlier work; remark: listed apart in the source
[8] = Residues of PRO and ALL in laying hens' tissues and eggs after 56-day dietary Bopu Powder (LC-QQQ-MS); details: mean ± sd; for concentration at 56 days: female, Roman Gray, chicken (laying hens), in vivo, n = 6, LOD 1 ng/g wet weight
Procedure: Throughout the experimental period, the hens were housed in cages under standard laboratory conditions, with ad libitum access to feed and water. Following a 7-day acclimatization period, standardized feeding regimens and routine health management procedures, including biosecurity protocols, were implemented. […] Three experimental groups were established: CN (control, no additive), BP (50 mg/kg additive), and BPX (500 mg/kg additive). The study employed a randomized design with 6 replicates per group and 18 hens per replicate. The feeding trial duration was 56 days.
Additionally, at the end of week 8, from each replicate group, one hen was randomly selected. A 10 mL blood sample was collected from the subcutaneous ulnar vein; 5 mL was transferred into an EDTA-K2 anticoagulant tube, gently mixed, and centrifuged at 3000× g for 10 min. The separated plasma was transferred into EP tubes (Eppendorf tubes) and stored at −20 °C for residue analysis.
Eggs: During weeks 4 and 8 of the trial, two eggs per replicate group, approximating the mean egg weight, were collected and stored at 4 °C until analysis.
Segments of jejunum, ileum, liver, ovary, oviduct, uterus, pectoral muscle, thigh muscle, gizzard, abdominal fat, and subcutaneous fat were individually wrapped in aluminum foil, flash-frozen in liquid nitrogen, and stored at −80 °C pending analysis.
Eggs: Two grams of homogenized whole egg liquid was transferred into a 50 mL centrifuge tube containing homogenization beads. Twenty microliters of the 1 mg/L internal standard (IS) working solution was precisely added, followed by vortex mixing for 30 s. Subsequently, 10 mL of acetonitrile was added and the mixture was vortex-mixed for 5 min to facilitate extraction. The sample was then centrifuged at 8000× g for 5 min. Five milliliters of the resulting supernatant was transferred to a ten-milliliter centrifuge tube, combined with three milliliters of n-hexane, and vortex-mixed for 1 min. After phase separation, the upper n-hexane layer was carefully removed using a rubber-bulb pipette. Then, 1 mL of the lower aqueous acetonitrile phase was collected, evaporated to dryness under a nitrogen stream, and reconstituted in 0.5 mL of acetonitrile with 30 s of vortex mixing. The final extract was filtered through a 0.22 μm organic solvent-compatible membrane prior to LC-MS/MS analysis. Only two quality control (QC) measures were implemented: parallel duplicate samples, and blank/carryover checks.
Tissues: Tissue samples stored at −80 °C were thawed to room temperature. Approximately 2 g of tissue was weighed into a 50 mL screw-cap centrifuge tube. Twenty microliters of freshly prepared 20 mg·L^−1 IS solution and 1 mL of physiological saline were added.

[9] = rat, in vivo; cited from earlier work
[10] = test system: carbon tetrachloride, acetaminophen, and simvastatin-induced hepatotoxicity; set-up: method as in PMID 9782072; details: PRO 11–22 mg/kg body weight; cited from earlier work
[11] = in vivo, iv, 1 mg/kg
Procedure: as §1, §2, §3, §4, §5

[12] = BPX group: 500 mg/kg Bopu Powder in diet, 56 days, n = 6, LOD 1 ng/g wet weight

COc1ccc2c(c1OC)CN(C)CCc1cc3c(cc1C(=O)C2)OCO3 [ALL, allocryptopine]
residues in eggs throughout ([1]; 400 mg/kg feed Bopu Powder, 7 days): undetectable | residual levels 1 day after withdrawal ([1]; 2000 mg/kg feed Bopu Powder, 7 days): 8.61 µg/kg | residues 7 days post-withdrawal ([1]; 2000 mg/kg feed Bopu Powder): residues persisted | number of metabolites detected in pooled plasma ([2]; intravenous 1 mg/kg bw, pooled plasma 5 to 120 min post-administration): seven | number of metabolites identified in plasma and feces ([2]; intravenous 1 mg/kg·bw, blood 5–120 min, feces 48 h collection): 9 | number of metabolites detected [3]: four | number of key metabolites identified [4]: five | number of metabolites identified, including isomers [5]: 25 | number of metabolites detected [6]: eight | residues in urine, feces, plasma, and various tissues ([7]; rats, following ALL administration): < 3 ng/g | residues in kidney ([8]; BP group: 50 mg/kg Bopu Powder in diet, 56 days, n = 6, LOD 1 ng/g wet weight): 6.59 ± 4.61 ng/g | residues in eggs [8, 12]: 12.29 ng/g and 12.29 ± 4.69 ng/g | residues in kidney [8, 12]: 7.92 ± 4.12 ng/g | residues in liver [8, 12]: 56.14 ± 9.39 ng/g | concentration at 56 days ([8]; 50 mg/kg, residues in kidney, BP group: 50 mg/kg Bopu Powder in diet): 6.59 ng/g | concentration at 56 days ([8]; 500 mg/kg, residues in kidney, BPX group: 500 mg/kg Bopu Powder in diet): 7.92 ng/g | concentration at 56 days ([8]; 500 mg/kg, residues in liver, BPX group: 500 mg/kg Bopu Powder in diet): 56.1 ng/g

protopine
time until concentrations fell below LOQ (10 ng/mL) [9]: ≤ 8 h | hepatoprotective effect [10]: effectively counteracts carbon tetrachloride, acetaminophen, and simvastatin-induced hepatotoxicity | number of metabolites detected in fecal samples [11]: Eleven | number of metabolites detected in pooled plasma [11]: two | number of metabolites identified in plasma and feces [11]: 12 | highest residual level, liver at 48 h ([7]; rat, in vivo): 20.64 ng/g | highest residual level, spleen at 24 h ([7]; rat, in vivo): 44.04 ng/g | highest residue level, liver at 48 h (second statement) ([7]; rat, in vivo): 61.8 ng/g | residue levels in other tissues (second statement) ([7]; rat, in vivo): below 6.5 ng/g
